Data reported in patent publication US20260306639A1, “DEGRADER FOR DECOMPOSING CMET PROTEIN, AND PHARMACEUTICAL COMPOSITION COMPRISING SAME” (INNOCURE THERAPEUTICS, INC., priority 2022, published 2026).

System: c-MET
Test: c-MET protein degradation (Simple Western), MKN-45 cells
Format: cell-based, human
Details: MKN-45 gastric cancer cells, c-MET overexpressing; 24 hours
Protocol: In order to assess the resolution of the compound of the present invention for c-MET expressed in cells, cells were dispensed in a 12-well plate at a concentration of 2×10^5 cells/well, and then gastric cancer cell lines were treated with samples for 24 hours and lung cancer cell lines were treated for 48 hours. Cell lysates were collected using a scraper on ice, centrifuged at 4° C. 15,000 rpm for 30 min to obtain a protein-containing supernatant. Protein expression was then measured using the Simple Western Automated Western Blot System Abby instrument using 3 μg of protein for each sample. SDS and heat-induced denaturation proteins were separated by molecular weight, attached to capillary, reacted with anti-c-MET or anti-GAPDH antibodies, which are primary antibodies, and then reacted with HRP-conjugated secondary antibodies, and analyzed the protein expression signal with compass software. Protein expression was normalized based on the expression value of GAPDH, and protein development in each sample was measured as a percentage (%) based on 100% of samples treated with 0.1% DMSO carriers, and DC50 (concentration of a compound where 50% protein inhibition is achieved) was calculated from the change in protein expression amount due to compound treatment.

| DC50 [nM] | Compound |
| --- | --- |
| < 100 | Cc1nn(C2CCC(=O)NC2=O)c(=O)c2ccc(N3CCN(C(=O)CCN4CCC(COc5cnc(-c6cccc(Cn7nc(-c8cccc(C#N)c8)ccc7=O)c6)nc5)CC4)CC3)cc12 (stereo not drawn) [ICT-0001224] |
| < 100 | Cc1nn(C2CCC(=O)NC2=O)c(=O)c2ccc(N3CCN(CC4CN(C(=O)CN5CCC(COc6cnc(-c7cccc(Cn8nc(-c9cccc(C#N)c9)ccc8=O)c7)nc6)CC5)C4)CC3)cc12 (stereo not drawn) [ICT-0001235] |
| < 100 | Cc1nn(C2CCC(=O)NC2=O)c(=O)c2cc(N3CCN(CC4CCN(C(=O)CN5CCC(COc6cnc(-c7cccc(Cn8nc(-c9cccc(C#N)c9)ccc8=O)c7)nc6)CC5)CC4)CC3)ccc12 (stereo not drawn) [ICT-0001195] |
| < 100 | Cc1nn(C2CCC(=O)NC2=O)c(=O)c2cc(N3CCC(N4CCN(C(=O)CN5CCC(COc6cnc(-c7cccc(Cn8nc(-c9cccc(C#N)c9)ccc8=O)c7)nc6)CC5)CC4)CC3)ccc12 (stereo not drawn) [ICT-0001233] |
| < 100 | Cc1nn(C2CCC(=O)NC2=O)c(=O)c2ccc(N3CCN(C4CCN(CC(=O)N5CCC(COc6cnc(-c7cccc(Cn8nc(-c9cccc(C#N)c9)ccc8=O)c7)nc6)CC5)CC4)CC3)cc12 (stereo not drawn) [ICT-0001255] |
| 100 to 1000 | Cc1nn(C2CCC(=O)NC2=O)c(=O)c2ccc(N3CCN(C(=O)CCCN4CCC(COc5cnc(-c6cccc(Cn7nc(-c8cccc(C#N)c8)ccc7=O)c6)nc5)CC4)CC3)cc12 (stereo not drawn) [ICT-0001227, 3-(1-(3-(5-((1-(4-(4-(2-(2,6-dioxopiperidin-3-yl)-4-methyl-1-oxo-1,2-dihydropetalazine-6-yl)piperazine-1-yl)4-oxobutyl)piperidine-4-yl)methoxy)pyrimidine-2-yl)benzyl)6-oxo-1,6-dihydropyridazine-3-yl)benzonitrile] |
| < 100 | Cc1nn(C2CCC(=O)NC2=O)c(=O)c2ccc(N3CCC(CN4CCN(C(=O)CN5CCC(COc6cnc(-c7cccc(Cn8nc(-c9cccc(C#N)c9)ccc8=O)c7)nc6)CC5)CC4)CC3)cc12 (stereo not drawn) [ICT-0001236] |
| 100 to 1000 | Cc1nn(C2CCC(=O)NC2=O)c(=O)c2ccc(N3CCN(C[C@H]4CCN(CC(=O)N5CCC(COc6cnc(-c7cccc(Cn8nc(-c9cccc(C#N)c9)ccc8=O)c7)nc6)CC5)CO4)CC3)cc12 (stereo partly drawn) [ICT-0001254] |
| < 100 | Cc1nn(C2CCC(=O)NC2=O)c(=O)c2ccc(N3CCN(C4CCN(C(=O)CN5CCC(COc6cnc(-c7cccc(Cn8nc(-c9cccc(C#N)c9)ccc8=O)c7)nc6)CC5)CC4)CC3)cc12 (stereo not drawn) [ICT-0001237] |
| < 100 | Cc1nn(C2CCC(=O)NC2=O)c(=O)c2cc(N3CCC(CN4CCN(CC(=O)N5CCC(COc6cnc(-c7cccc(Cn8nc(-c9cccc(C#N)c9)ccc8=O)c7)nc6)CC5)CC4)CC3)ccc12 (stereo not drawn) [ICT-0001239] |
| < 100 | Cc1nn(C2CCC(=O)NC2=O)c(=O)c2ccc(N3CCN(CC4CN(CC(=O)N5CCC(COc6cnc(-c7cccc(Cn8nc(-c9cccc(C#N)c9)ccc8=O)c7)nc6)CC5)C4)CC3)cc12 (stereo not drawn) [ICT-0001253] |

The remaining lines, values behind:

| Compound | DC50 [nM] |
| --- | --- |
| Cc1nn(C2CCC(=O)NC2=O)c(=O)c2cc(N3CCC(C(=O)NCCCNC(=O)CN4CCC(COc5cnc(-c6cccc(Cn7nc(-c8cccc(C#N)c8)ccc7=O)c6)nc5)CC4)CC3)ccc12 (stereo not drawn) [ICT-0001238] | > 1000 |
| N#Cc1cccc(-c2ccc(=O)n(Cc3cccc(-c4ncc(OCC5CCN(C(=O)CCCCCNc6ccc7c(=O)n(C8CCC(=O)NC8=O)ncc7c6)CC5)cn4)c3)n2)c1 (stereo not drawn) [ICT-0000984, 3-(1-{[3-(5-{[1-(6-{[2-(2,6-dioxopiperidin-3-yl)-1-oxo-1,2-dihydroptalazine-6-yl]amino}hexanoyl)piperidine-4-il]methoxy}pyrimidine-2-yl)phenyl]methyl}-6-oxo-1,6-dihydropyridazine-3-yl)benzonitrile] | 100 to 1000 |
| Cn1cc(-c2cnc3c(nnn3C[C@@H]3CN(c4ncc(-c5ccc(CN6CCN(C(=O)CCOCCOCCNc7cccc8cnn(C9CCC(=O)NC9=O)c(=O)c78)CC6)cc5)cn4)CCO3)n2)cn1 (stereo partly drawn) [ICT-0000940] | 100 to 1000 |
| Cn1cc(-c2cnc3c(nnn3CC3CN(c4ncc(-c5ccc(CN6CCN(C(=O)CCCNc7cccc8cnn(C9CCC(=O)NC9=O)c(=O)c78)CC6)cc5)cn4)CCO3)n2)cn1 [ICT-0000969, 3-(8-((4-(4-(4-(4-(2-((S)-2-((5-(1-methyl-1H-pyrazole-4-yl)-1H-[1,2,3]triazolo[4,5-b]pyrazine-1-yl)methyl)morpholino)pyrimidine-5-yl)benzyl)piperazine-1-yl)4-oxobutyl)amino)1-oxopthalazine-2(1H)-yl)piperidine-2,6-dione] | < 100 |
| Cn1cc(-c2cnc3c(nnn3C[C@@H]3CN(c4ncc(-c5ccc(CN6CCN(C(=O)CCCCNc7ccc8c(=O)n(C9CCC(=O)NC9=O)ncc8c7)CC6)cc5)cn4)CCO3)n2)cn1 (stereo partly drawn) [ICT-0000924, 3-(6-((5-(4-(4-(2-((S)-2-((5-(1-methyl-1H-pyrazole-4-yl)-1H-[1,2,3]triazolo[4,5-b]pyrazine-1-yl)methyl)morpholino)pyrimidine-5-yl)benzyl)piperazine-1-yl)5-oxopentyl)amino)1-oxopthalazine-2(1H)-yl)piperidine-2,6-dione] | < 100 |
| Cc1nn(C2CCC(=O)NC2=O)c(=O)c2c(NCC(=O)N3CCC(COc4cnc(-c5cccc(Cn6nc(-c7cccc(C#N)c7)ccc6=O)c5)nc4)CC3)cccc12 (stereo not drawn) [ICT-0000981] | > 1000 |
| N#Cc1cccc(-c2ccc(=O)n(Cc3cccc(-c4ncc(OCC5CCN(CC(=O)NCCCCCc6ccc7c(=O)n(C8CCC(=O)NC8=O)ncc7c6)CC5)cn4)c3)n2)c1 (stereo not drawn) [ICT-0001206] | < 100 |
| Cc1nn(C2CCC(=O)NC2=O)c(=O)c2cc(N3CCN(C(=O)CCCCN4CCC(COc5cnc(-c6cccc(Cn7nc(-c8cccc(C#N)c8)ccc7=O)c6)nc5)CC4)CC3)ccc12 (stereo not drawn) [ICT-0001251] | < 100 |
| Cc1nn(C2CCC(=O)NC2=O)c(=O)c2ccc(NCCOCCOCC(=O)N3CCC(COc4cnc(-c5cccc(Cn6nc(-c7cccc(C#N)c7)ccc6=O)c5)nc4)CC3)cc12 (stereo not drawn) [ICT-0001087] | < 100 |
| Cc1nn(C2CCC(=O)NC2=O)c(=O)c2ccc(NCCOCCOCCOCCOCCC(=O)N3CCC(COc4cnc(-c5cccc(Cn6nc(-c7cccc(C#N)c7)ccc6=O)c5)nc4)CC3)cc12 (stereo not drawn) [ICT-0001091] | < 100 |
| Cn1cc(-c2cnc3c(nnn3C[C@@H]3CN(c4ncc(-c5ccc(CN6CCN(C(=O)CCCCCNc7ccc8c(=O)n(C9CCC(=O)NC9=O)ncc8c7)CC6)cc5)cn4)CCO3)n2)cn1 (stereo partly drawn) [ICT-0000923, 3-{6-[(6-{4-[(4-{2-[(2S)-2-{[5-(1-methyl-1H-pyrazole-4-yl)-1H-[1,2,3]triazolo[4,5-b]pyrazine-1-yl]methyl}morpholine-4-day]pyrimidine-5-yl}phenyl)methyl]piperazine-1-yl}-6-oxohexyl)amino]-1-oxo-1,2-dihydrophthalazine-2-yl}piperidine-2,6-dione] | < 100 |
| Cn1cc(-c2cnc3c(nnn3C[C@@H]3CN(c4ncc(-c5ccc(CN6CCN(C(=O)CCCCCCNc7ccc8c(=O)n(C9CCC(=O)NC9=O)ncc8c7)CC6)cc5)cn4)CCO3)n2)cn1 (stereo partly drawn) [ICT-0000925, 3-(6-((7-(4-(4-(2-((S)-2-((5-(1-methyl-1H-pyrazole-4-yl)-1H-[1,2,3]triazolo[4,5-b]pyrazine-1-yl)methyl)morpholino)pyrimidine-5-yl)benzyl)piperazine-1-yl)7-oxoheptyl)amino)1-oxopthalazine-2(1H)-yl)piperidine-2,6-dione] | < 100 |
| N#Cc1cccc(-c2ccc(=O)n(Cc3cccc(-c4ncc(OCC5CCN(C(=O)CCOCCOCCOCCOCCNc6cccc7cnn(C8CCC(=O)NC8=O)c(=O)c67)CC5)cn4)c3)n2)c1 (stereo not drawn) [ICT-0000907] | 100 to 1000 |
